Where a name gives a salt, the structure may show the parent alone. Read-outs that look alike come from different tables or passages of the source. Blank lines part the entries; values can stand above or below the compound they belong to.
Assays:
ERK 2 = ERK 2 (Homo sapiens, UniProt P28482); assay: Enzymatic inhibition assay (ADP-Glo Plus luminescence kinase assay), ERK2; format: biochemical; settings: for inhibition at 1 µM: 1 μM (1000 nM) compound
Protocol: (§1) All compounds were diluted in 10% DMSO and tested in 10-dose with 3-fold serial dilution starting at a concentration of 1 μM. Of the dilution, 5 µL was added to a 50 µL reaction so that the final concentration of DMSO is 1% in all of reactions. After all of the reaction mixtures were conducted at 30 °C for 40 min, the assay was performed using ADP-Glo Plus luminescence kinase assay kit. The luminescence signal and the intensity of the luminescence signal value were detected using a multi-well spectrophotometer (the MD-SpectraMax M5 multifunctional microplate reader). It was directly proportional to the inhibition of enzyme activity.

PI3Kα = PI3Kα (Homo sapiens, UniProt P42336); assay: Enzymatic inhibition assay (ADP-Glo Plus luminescence kinase assay), PI3Kα; format: biochemical; settings: for inhibition at 1 µM: 1 μM (1000 nM) compound
Chain of PI3Kα (P42336 whole entry): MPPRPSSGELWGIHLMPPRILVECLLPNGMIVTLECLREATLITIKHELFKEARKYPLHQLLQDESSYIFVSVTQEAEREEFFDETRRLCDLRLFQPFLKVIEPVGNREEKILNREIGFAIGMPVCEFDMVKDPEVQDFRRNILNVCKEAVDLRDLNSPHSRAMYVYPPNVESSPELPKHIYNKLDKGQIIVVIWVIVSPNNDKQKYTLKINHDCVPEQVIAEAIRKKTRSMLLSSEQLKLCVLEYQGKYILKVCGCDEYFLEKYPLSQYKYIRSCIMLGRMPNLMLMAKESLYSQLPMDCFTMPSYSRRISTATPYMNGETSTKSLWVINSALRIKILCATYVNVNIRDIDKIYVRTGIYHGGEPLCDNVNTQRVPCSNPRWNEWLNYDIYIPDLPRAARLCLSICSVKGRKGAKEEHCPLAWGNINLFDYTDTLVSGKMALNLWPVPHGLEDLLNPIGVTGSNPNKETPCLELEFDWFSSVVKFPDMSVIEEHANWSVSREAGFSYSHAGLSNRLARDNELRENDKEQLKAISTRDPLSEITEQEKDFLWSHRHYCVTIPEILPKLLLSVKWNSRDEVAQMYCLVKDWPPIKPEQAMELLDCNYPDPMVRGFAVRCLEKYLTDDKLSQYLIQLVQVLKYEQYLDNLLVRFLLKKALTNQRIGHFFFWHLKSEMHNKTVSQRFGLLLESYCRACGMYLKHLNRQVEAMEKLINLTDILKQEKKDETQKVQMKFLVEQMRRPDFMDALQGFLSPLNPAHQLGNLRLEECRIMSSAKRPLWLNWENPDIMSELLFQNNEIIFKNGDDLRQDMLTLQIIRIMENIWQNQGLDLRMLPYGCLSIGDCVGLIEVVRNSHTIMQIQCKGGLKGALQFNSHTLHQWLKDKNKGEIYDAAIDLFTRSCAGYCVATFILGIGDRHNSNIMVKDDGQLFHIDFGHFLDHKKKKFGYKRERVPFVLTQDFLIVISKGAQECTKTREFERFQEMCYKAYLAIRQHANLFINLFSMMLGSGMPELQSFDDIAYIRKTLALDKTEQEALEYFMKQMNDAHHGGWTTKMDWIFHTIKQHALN
Chain of PI3Kα (P27986 whole entry partner): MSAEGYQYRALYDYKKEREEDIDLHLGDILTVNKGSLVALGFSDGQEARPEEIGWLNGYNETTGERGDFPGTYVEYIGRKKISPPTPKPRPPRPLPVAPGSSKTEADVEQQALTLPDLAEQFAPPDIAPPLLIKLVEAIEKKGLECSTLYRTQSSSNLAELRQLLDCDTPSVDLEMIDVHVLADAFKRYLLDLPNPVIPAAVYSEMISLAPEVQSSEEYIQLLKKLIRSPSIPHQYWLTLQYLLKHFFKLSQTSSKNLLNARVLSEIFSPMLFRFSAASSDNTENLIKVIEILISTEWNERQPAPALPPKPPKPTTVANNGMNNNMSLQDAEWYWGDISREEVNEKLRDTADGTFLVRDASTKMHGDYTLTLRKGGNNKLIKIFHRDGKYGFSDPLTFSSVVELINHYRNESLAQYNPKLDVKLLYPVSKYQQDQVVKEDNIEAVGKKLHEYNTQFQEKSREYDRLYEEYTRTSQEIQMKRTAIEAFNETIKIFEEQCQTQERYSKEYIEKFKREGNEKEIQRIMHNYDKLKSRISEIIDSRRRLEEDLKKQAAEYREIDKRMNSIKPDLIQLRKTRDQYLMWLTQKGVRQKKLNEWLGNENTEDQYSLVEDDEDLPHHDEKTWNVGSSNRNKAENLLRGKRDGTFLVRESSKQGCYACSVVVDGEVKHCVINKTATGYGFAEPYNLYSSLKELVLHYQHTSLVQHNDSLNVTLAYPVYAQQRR
Protocol: as §1, with “The 50 µL reaction mixture contains 40 mM Tris-HCl, pH 7.4, 10 µM ATP, 10 mM MgCl2, 0.1 mg/mL BSA, 1 mM DTT, 0.2 ug/mL ERK 2, ERK 1, PI3Kα, PI3Kβ, PI3Kγ or PI3Kδ and 100 uM lipid substrate. All” for “All”, “activity. The experimental results were converted into active percentages, a dose-response curve is drawn, and the IC50 value of inhibition was calculated using […] PRISM 5 nonlinear regression.” for “activity.”

HCT116 = assay: Anti-proliferation assay (MTT, 72 h), HCT116; format: cell-based; settings: Homo sapiens, HCT-116, HCT116 cells
Protocol: (§2) Human cancer cell lines HCT116 and HEC1B were cultured in media with 10% FBS (GIBCO, Invitrogen Corporation, NY, USA) at 37 °C in a 5% (v/v) CO2 humidified incubator. The logarithmic growth phase cells were seeded in a 96-well plate with a density of 1 × 10^5 cells/mL, cultured at 37 °C, 5% CO2. Until the cells were 90% confluent, the medium containing compound was added to incubate for 72 h, and then the cell viability was tested by MTT analysis. Taking the drug concentration as the abscissa and the percentage of proliferation inhibitory activity corresponding to each concentration as the ordinate, using Graphpad Prism 5 to do nonlinear regression, the IC50 value of each compound was calculated.

HEC1B = assay: Anti-proliferation assay (MTT, 72 h), HEC1B; format: cell-based; settings: Homo sapiens, HEC-1B, HEC1B cells
Protocol: as §2

HCT-116 xenograft = assay: In vivo antitumor activity, HCT-116 xenograft in nude mice; design: species or system Balb/c-nude mice; settings: intraperitoneal once daily, 21 days, 32d 5 mg/kg, BVD-523 5 mg/kg, GDC-0980 1 mg/kg; for TGI (tumor growth inhibitory rate): nude mice, combination 2.5 mg/kg + 0.5 mg/kg
Protocol: Male five-week-old Balb/c-nude mice (18–20 g) were injected subcutaneously with HCT-116 cells (5 × 10^7/mL cells suspended in Matrigel Matrix). […] All mice were administered by intraperitoneal q.d. The tumor volumes were measured using electronic digital calipers every 3 days and were calculated as 1/2 length × width × width.

[1] = In vivo pharmacokinetic study in SD rats; design: species or system Sprague Dawley rats; settings: for MRT last: read-out: MRT0–t
Protocol: The pharmacokinetic experiment was conducted by using 180–220 g male Sprague Dawley rats (purchased from Weitong Lihua Experimental Animal Co., Ltd., Beijing, China). The experimental animals were raised in a well-ventilated, air-conditioned standard animal room where the temperature was maintained at 20–25 °C, the humidity was maintained at 40–70%, and the light and dark were rotated for 12 h each. After about 5 days of normal feeding, rats with good physical signs can enter this experiment after veterinary inspection. All rats were fasted for 12 h before the start of the animal experiment. The 32d was dissolved in a mixture of 40% DMSO + 40% PEG400 + 20% 5% glucose injection at a concentration of 1 mg/mL (1 mg/kg). The 32d was administered to the […] by p.o. (0.2 mg/mL, 10 mg/kg), and blood samples (about 0.25 mL) were collected from the posterior orbital venous plexus after different time points (i.v.: 2 min, 15 min, 30 min, 1 h, 2 h, 4 h, 6 h, 8 h, and 12 h; po: 5 min, 15 min, 30 min, 1 h, 2 h, 4 h, 6 h, 8 h, 12 h, and 24 h) after dosing, with three […] for each time point. The whole plasma samples were kept frozen at −20 °C until LC/MS/MS analysis after centrifugation. WinNolin 8.2 software was used to calculate pharmacokinetic parameters, and GraphPad Prism 8.0 was used to draw plasma concentration-time curves.

[2] = In vitro pharmacokinetic study, oxidation metabolism in human liver microsomes; format: in vitro ADME; settings: n = 3
Protocol: The pharmacokinetic experiment was conducted by using human liver microsome (purchased from Research Institute for Liver Diseases (Shanghai) Co., Ltd., Shanghai, China). The reaction mixture contained 100 μL PBS, 40 μL liver microsome and 20 μL dilution of compound 32d. After the reaction mixtures were preconducted at 37 °C for 5 min, 40 μL NADPH solution was added to start pharmacokinetic reaction, and samples were collected at different time points (5 min, 10 min, 15 min, 30 min and 45 min). Then, 100 μL of ethyl acetate was added to stop the reaction. The whole samples were added in 10 μL of an internal standard (Phenacetin) to shake for 10 min and centrifuge at 10,000 rpm for 10 min and then taken out 300 μL of supernatant.for LC/MS/MS analysis. WinNolin 8.2 software was used to calculate pharmacokinetic parameters, and GraphPad Prism 8.0 was used to draw concentration-time curves.

Solubility = format: physicochemical; settings: relative to parent after introducing a hydrophilic group at the pyrazole NH
[3] = male, Sprague-Dawley, rat, plasma, iv, i.v. 1 mg/kg
[4] = male, Sprague-Dawley, rat, plasma, po, p.o. 10 mg/kg

Chain of ERK 2 (P28482 whole entry): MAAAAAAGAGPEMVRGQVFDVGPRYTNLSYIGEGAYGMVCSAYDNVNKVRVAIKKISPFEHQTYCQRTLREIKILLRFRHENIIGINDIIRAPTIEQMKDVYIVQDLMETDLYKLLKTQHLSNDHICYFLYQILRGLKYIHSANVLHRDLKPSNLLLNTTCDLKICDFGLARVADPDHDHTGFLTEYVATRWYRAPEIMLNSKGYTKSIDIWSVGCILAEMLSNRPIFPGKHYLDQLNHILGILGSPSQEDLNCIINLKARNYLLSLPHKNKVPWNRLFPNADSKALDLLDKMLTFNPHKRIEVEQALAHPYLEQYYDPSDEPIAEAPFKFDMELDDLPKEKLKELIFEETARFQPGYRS

inhibition at 1 µM (ERK 2): 1.8%
inhibition at 1 µM (PI3Kα): 15.1%
Compound: Cn1cc(-c2cnc3nc(NC(=O)NC4CCCC4)ncc3c2)cn1 [compound 24, 1-Cyclopentyl-3-(6-(1-methyl-1H-pyrazol-4-yl)pyrido[2,3-d]pyrimidin-2-yl)urea]

IC50 (HCT116): 321 nM
inhibition at 0.1 µM (ERK 2; 100 nM compound): 97.7%
inhibition at 1 µM (ERK 2): 97.7%
Compound: CC(C)Nc1cc(-c2c[nH]c(C(=O)N[C@H](CO)c3cccc(Cl)c3)c2)c(Cl)cn1 [BVD-523, reference compound]
body weight of nude mice during treatment (HCT-116 xenograft): losing
TGI (tumor growth inhibitory rate) (HCT-116 xenograft): 50%
IC50 (HEC1B): 18000 nM

inhibition at 0.1 µM (ERK 2; 100 nM compound): 6.2%
inhibition at 0.1 µM (PI3Kα; 100 nM compound): 15.1%
Compound: Cn1cc(-c2cnc3cnc(NC(=O)NCCN4CCOCC4)nc3c2)cn1 [32j, 1-(7-(1-Methyl-1H-pyrazol-4-yl)pyrido[3,2-d]pyrimidin-2-yl)-3-(2-morpholinoethyl)urea]

inhibition at 0.1 µM (ERK 2; 100 nM compound): 22.1%
inhibition at 0.1 µM (PI3Kα; 100 nM compound): 33.4%
Compound: CCNC(=O)Nc1ncc2ncc(-c3cnn(C)c3)cc2n1 [32i, 1-Ethyl-3-(7-(1-methyl-1H-pyrazol-4-yl)pyrido[3,2-d]pyrimidin-2-yl)urea]

inhibition at 0.1 µM (ERK 2; 100 nM compound): 17.2%
inhibition at 0.1 µM (PI3Kα; 100 nM compound): 24.9%
Compound: Cn1cc(-c2cnc3cnc(NC(=O)Nc4ccccc4)nc3c2)cn1 [32h, 1-(7-(1-Methyl-1H-pyrazol-4-yl)pyrido[3,2-d]pyrimidin-2-yl)-3-phenylurea]

solubility (Solubility): ameliorated
inhibition at 0.1 µM (ERK 2; 100 nM compound): 8.4%
inhibition at 0.1 µM (PI3Kα; 100 nM compound): 41%
Compound: CN(C)CCn1cc(-c2cnc3cnc(NC(=O)NC4CCCC4)nc3c2)cn1 [32m, 1-Cyclopentyl-3-(7-(1-(2-(dimethylamino)ethyl)-1H-pyrazol-4-yl)pyrido[3,2-d]pyrimidin-2-yl) urea]

The remaining lines, values behind:

Compound: Cc1cc(-c2cnc3cnc(NC(=O)NC4CCCC4)nc3c2)ccn1 [32b, 1-Cyclopentyl-3-(7-(2-methylpyridin-4-yl)pyrido[3,2-d]pyrimidin-2-yl)urea]
inhibition at 0.1 µM (ERK 2; 100 nM compound): 53.7%
inhibition at 0.1 µM (PI3Kα; 100 nM compound): 10.5%

Compound: Cn1cc(-c2cnc3cnc(NC(=O)NCc4ccccc4)nc3c2)cn1 [32g, 1-Benzyl-3-(7-(1-methyl-1H-pyrazol-4-yl)pyrido[3,2-d]pyrimidin-2-yl)urea]
IC50 (HCT116): 10000 nM
IC50 (HEC1B): 2270 nM
IC50 (ERK 2): 83 nM
inhibition at 0.1 µM (ERK 2; 100 nM compound): 55.2%
IC50 (PI3Kα): 824 nM
inhibition at 0.1 µM (PI3Kα; 100 nM compound): 32.4%

Compound: Cc1cc(-c2n[nH]c3nc(NC(=O)NC4CCCC4)ncc23)ccn1 [16b, 1-Cyclopentyl-3-(3-(2-methylpyridin-4-yl)-1H-pyrazolo[3,4-d]pyrimidin-6-yl)urea]
inhibition at 1 µM (ERK 2): 84.8%
inhibition at 1 µM (PI3Kα): 27.4%

Compound: Cc1c(CN2CCN(C(=O)[C@H](C)O)CC2)sc2c(N3CCOCC3)nc(-c3cnc(N)nc3)nc12 [GDC-0980, reference compound]
body weight of nude mice during treatment (HCT-116 xenograft): losing
TGI (tumor growth inhibitory rate) (HCT-116 xenograft): 46%
IC50 (HCT116): 1060 nM
IC50 (HEC1B): 230 nM

Compound: O=C(Nc1ncc2ncc(-c3cn[nH]c3)cc2n1)NC1CCCC1 [32d, 1-(7-(1H-pyrazol-4-yl)pyrido[3,2-d]pyrimidin-2-yl)-3-cyclopentylurea]
AUC(0-inf) [1, 3]: 379 ng·h/mL
AUC(0-t) [1, 3]: 368 ng·h/mL
Cmax [1, 3]: 1310 ng/mL
clearance [1, 3]: 44.8 mL/min/kg
half-life [1, 3]: 2.32 h
MRT last [1, 3]: 0.99 h
Vd ([1]; male, Sprague-Dawley, rat, plasma, iv, i.v. 1 mg/kg, read-out: Vz): 9.12 L/kg
bioavailability ([1]; male, Sprague-Dawley, rat, plasma, oral, p.o. 10 mg/kg vs i.v. 1 mg/kg, read-out: oral bioavailability (F)): 9.37%
AUC(0-inf) [1, 4]: 355 ng·h/mL
AUC(0-t) [1, 4]: 192 ng·h/mL
Cmax [1, 4]: 129 ng/mL
half-life [1, 4]: 2.65 h
MRT last [1, 4]: 2.93 h
CL ([1]; p.o. 10 mg/kg): 727.9 mL/min/kg
Vz ([1]; p.o. 10 mg/kg): 244.74 L/kg
body weight of nude mice during treatment (HCT-116 xenograft): no observed body weight loss
TGI (tumor growth inhibitory rate) (HCT-116 xenograft): 51%
IC50 (HCT116): 726 nM
IC50 (HEC1B): 1490 nM
IC50 (ERK 2): 73 nM
inhibition at 0.1 µM (ERK 2; 100 nM compound): 49.3%
K ([2]; 90 ng/mL): 0.004 min⁻¹
half-life at 90 ng/mL [2]: 2.89 h
microsomal CLint at 90 ng/mL [2]: 16 µL/min/mg
IC50 (PI3Kα): 59 nM
inhibition at 0.1 µM (PI3Kα; 100 nM compound): 51.4%

Compound: 1-Cyclopentyl-3-(7-(2-methylpyridin-4-yl)pyrido[3,2-d]pyrimidin-2-yl)urea [32k]
ERK2 Inhibition% (100 nM) (ERK 2; 100 nM compound): 66.5%
PI3Kα Inhibition% (100 nM) (PI3Kα; 100 nM compound): 15.3%

Compound: O=C(Nc1ncc2ncc(C3=CCNCC3)cc2n1)NC1CCCC1 [32f, 1-Cyclopentyl-3-(7-(1,2,3,6-tetrahydropyridin-4-yl)pyrido[3,2-d]pyrimidin-2-yl)urea hydrochloride]
inhibition at 0.1 µM (ERK 2; 100 nM compound): 0.4%
inhibition at 0.1 µM (PI3Kα; 100 nM compound): -8.8%

Compound: Cn1cc(-c2n[nH]c3nc(NC(=O)NC4CCCC4)ncc23)cn1 [16d, 1-Cyclopentyl-3-(3-(1-methyl-1H-pyrazol-4-yl)-1H-pyrazolo[3,4-d]pyrimidin-6-yl)urea]
inhibition at 1 µM (ERK 2): 79.5%
inhibition at 1 µM (PI3Kα): 4%

Compound: Cc1cc(-c2n[nH]c3nc(NC(=O)NCc4ccccc4)ncc23)ccn1 [16a, 1-Benzyl-3-(3-(2-methylpyridin-4-yl)-1H-pyrazolo[3,4-d]pyrimidin-6-yl)urea]
inhibition at 1 µM (ERK 2): 98.3%
inhibition at 1 µM (PI3Kα): 8.7%

Compound: O=C(Nc1ncc2ncc(-c3cccc(OC(F)(F)F)c3)cc2n1)NC1CCCC1 [32c, 1-Cyclopentyl-3-(7-(3-(trifluoromethoxy)phenyl)pyrido[3,2-d]pyrimidin-2-yl)urea]
inhibition at 0.1 µM (ERK 2; 100 nM compound): 1.6%
inhibition at 0.1 µM (PI3Kα; 100 nM compound): -11.3%

Compound: O=C(Nc1ncc2ncc(-c3ccnc(F)c3)cc2n1)NC1CCCC1 [32e, 1-Cyclopentyl-3-(7-(2-fluoropyridin-4-yl)pyrido[3,2-d]pyrimidin-2-yl)urea]
inhibition at 0.1 µM (ERK 2; 100 nM compound): 35.4%
inhibition at 0.1 µM (PI3Kα; 100 nM compound): 7%

Compound: Cn1cc(-c2n[nH]c3nc(NC(=O)NCc4ccccc4)ncc23)cn1 [16c, 1-Benzyl-3-(3-(1-methyl-1H-pyrazol-4-yl)-1H-pyrazolo[3,4-d]pyrimidin-6-yl)urea]
inhibition at 1 µM (ERK 2): 97.2%
inhibition at 1 µM (PI3Kα): 1.8%
